Assays:
Experiment in all cases: In vitro antimicrobial activity, agar dilution MIC
Type in all cases: cell-based
MRSE = test system: MRSE
Description: (§1) The activity of the compounds of the present invention was evaluated using an in vitro assay. Microorganisms were prepared from growth on agar media, in broth culture, or from thawed cryopreserved cultures. Fungal cultures were filtered to remove mycelial elements.
(§2) Using Mueller Hinton II Broth, 0.9% saline or other appropriate media, a suspension of each culture was prepared and adjusted to a turbidity equivalent to that of a 0.5 McFarland Standard. (Cultures adjusted to the 0.5 McFarland Standard generally contain approximately 1.0×10^8 CFU/mL). The adjusted suspension for each culture was diluted 1:10 in the appropriate media so that the inoculum concentration approximates 1.0×10^7 CFU/mL.
(§3) The antimicrobial agent to be tested was weighed and diluted with a volume of sterile distilled water calculated to yield the necessary starting concentration. Serial 1:2 dilutions of the antimicrobial agent in sterile distilled water were prepared (approximately 10-12 test concentrations comprise a reasonable experimental range). A known amount of each antimicrobial dilution was combined with an aliquot of agar medium calculated to yield the desired final antimicrobial test concentration and dispensed onto plates.
(§4) The amount of antimicrobial agent to be weighed was determined using the following equation: […]
(§5) Antimicrobial stock solutions were prepared at concentrations 5-10 times the highest concentration to be tested (routinely 1024 μg/mL). […] The stock solution was diluted to appropriate concentration using sterile water to form a working solution. The working solution was diluted two-fold, in sterile water, until the desired concentration is obtained.
(§6) Mueller Hinton II agar was prepared as described by the manufacturer. Mueller Hinton II agar may be supplemented with 5% defibrinated sheep blood for testing streptococci. Agar was added to the serially diluted antimicrobial solution in each container. The solutions were mixed thoroughly and poured into petri dishes (about 25 mL/plate). The pH of the agar at 25° C. should be between 7.2 and 7.4.
(§7) At least one inocula control plate was inoculated (agar medium without antimicrobial agent) from each seed plate before inoculating test plates. Test plates were inoculated starting at the lowest concentration and proceeding to the highest concentration. After all test plates were inoculated, an additional control plate (agar medium without antimicrobial agent) was inoculated. The plates were incubated in a non-CO2 incubator (or CO2 incubator depending on growth requirements); 18-24 hours at 32-35° C. was sufficient for most organisms.
(§8) All inoculation points on the agar surface were examined for the presence of growth as compared to the inoculum control plates. The results were summarized and use to determine Minimal Inhibitory Concentrations (MICs): The MIC is the lowest concentration of the antimicrobial agent which prevents visible growth of the organism (negative score).

Acinetobacter junii = test system: Acinetobacter junii
Description: as §1, §2, §3, §4, §5, §6, §7, §8

Serratia marcescens = test system: Serratia marcescens
Description: as §1, §2, §3, §4, §5, §6, §7, §8

[1] = test system: Corynebacterium amycolatum
Description: as §1, §2, §3, §4, §5, §6, §7, §8

MRSA = test system: MRSA
Description: as §1, §2, §3, §4, §5, §6, §7, §8

[2] = test system: Staphylococcus haemolyticus
Description: as §1, §2, §3, §4, §5, §6, §7, §8

Morganella morganii = test system: Morganella morganii
Description: as §1, §2, §3, §4, §5, §6, §7, §8

Streptococcus mitis = test system: Streptococcus mitis
Description: as §1, §2, §3, §4, §5, §6, §7, §8

Enterobacter hormaechei = test system: Enterobacter hormaechei
Description: as §1, §2, §3, §4, §5, §6, §7, §8

MSSA = settings: test organism 6, MSSA
Description: as §1, §2, §3, §4, §5, §6, §7, §8

[3] = test system: Stenotrophomonas maltophilia
Description: as §1, §2, §3, §4, §5, §6, §7, §8

Pseudomonas aeruginosa = test system: Pseudomonas aeruginosa
Description: as §1, §2, §3, §4, §5, §6, §7, §8

[4] = test system: Staphylococcus epidermidis
Description: as §1, §2, §3, §4, §5, §6, §7, §8

Streptococcus pneumoniae = test system: Streptococcus pneumoniae
Description: as §1, §2, §3, §4, §5, §6, §7, §8

Acinetobacter baumannii = settings: test organism 26, Acinetobacter baumannii
Description: as §1, §2, §3, §4, §5, §6, §7, §8

Escherichia coli = test system: Escherichia coli
Description: as §1, §2, §3, §4, §5, §6, §7, §8

Staphylococcus aureus = test system: Staphylococcus aureus
Description: as §1, §2, §3, §4, §5, §6, §7, §8

Enterococcus faecalis = test system: Enterococcus faecalis
Description: as §1, §2, §3, §4, §5, §6, §7, §8

[5] = test organism 27, Acinetobacter junii
[6] = test organism 28, Acinetobacter junii
[7] = test organism 29, Acinetobacter junii
[8] = test organism 39, Serratia marcescens
[9] = test organism 40, Serratia marcescens
[10] = test organism 24, Corynebacterium amycolatum
[11] = test organism 25, Corynebacterium amycolatum
[12] = test organism 12, Staphylococcus haemolyticus
[13] = test organism 13, Staphylococcus haemolyticus
[14] = test organism 14, Staphylococcus haemolyticus
[15] = test organism 35, Morganella morganii
[16] = test organism 36, Morganella morganii
[17] = test organism 21, Streptococcus mitis
[18] = test organism 22, Streptococcus mitis
[19] = test organism 23, Streptococcus mitis
[20] = test organism 31, Enterobacter hormaechei
[21] = test organism 41, Stenotrophomonas maltophilia
[22] = test organism 42, Stenotrophomonas maltophilia
[23] = test organism 37, Pseudomonas aeruginosa
[24] = test organism 38, Pseudomonas aeruginosa
[25] = test organism 7, Staphylococcus epidermidis
[26] = test organism 8, Staphylococcus epidermidis
[27] = test organism 19, Streptococcus pneumoniae
[28] = test organism 20, Streptococcus pneumoniae
[29] = test organism 32, Escherichia coli
[30] = test organism 33, Escherichia coli
[31] = test organism 34, Escherichia coli
[32] = test organism 1, Staphylococcus aureus
[33] = test organism 2, Staphylococcus aureus
[34] = test organism 15, Enterococcus faecalis
[35] = test organism 16, Enterococcus faecalis
[36] = test organism 17, Enterococcus faecalis
[37] = test organism 18, Enterococcus faecalis

Measured: Minimal Inhibitory Concentration (MIC)

Nc1c(F)c(N2CC3CCCNC3C2)c(F)c2c1c(=O)c(C(=O)O)cn2C1CC1 [Compound 3 (S,S)]
0.5: Serratia marcescens; [8] | [1]; [10] | Pseudomonas aeruginosa; [24] | [4]; [25] | [4]; [26] | Enterococcus faecalis; [35]
0.06: Acinetobacter junii; [6] | Escherichia coli; [29]
1: Serratia marcescens; [9] | MRSA; test organism 3, MRSA | [2]; [13] | Morganella morganii; [16] | Streptococcus mitis; [19]
≦0.03: Staphylococcus aureus; [32]
4: Enterobacter hormaechei; [20] | MSSA
>2: MRSE; test organism 9, MRSE | MRSE; test organism 10, MRSE | MRSA; test organism 5, MRSA | Enterococcus faecalis; [37]
>4: MRSE; test organism 11, MRSE | Acinetobacter junii; [7] | [1]; [11] | [2]; [14] | Pseudomonas aeruginosa; [23] | Escherichia coli; [31] | Enterococcus faecalis; [36]
≦0.25: Acinetobacter junii; [5] | Streptococcus mitis; [17] | Streptococcus pneumoniae; [28] | Acinetobacter baumannii | Escherichia coli; [30] | Staphylococcus aureus; [33]
2: MRSA; test organism 4, MRSA | [3]; [21]
0.125: [2]; [12] | Morganella morganii; [15] | Streptococcus mitis; [18] | [3]; [22] | Streptococcus pneumoniae; [27] | Enterococcus faecalis; [34]

Nc1c(F)c(N2CC3CCCNC3C2)c(F)c2c1c(=O)c(C(=O)O)cn2C1CC1 (racemic) [Compound 3 (racemic)]
>2: MRSE; test organism 9, MRSE | MRSE; test organism 10, MRSE | MRSA; test organism 3, MRSA | MRSA; test organism 5, MRSA | [4]; [26] | Enterococcus faecalis; [37]
0.06: [1]; [10] | Streptococcus mitis; [18] | [4]; [25] | Escherichia coli; [29]
>4: MRSE; test organism 11, MRSE | Acinetobacter junii; [7] | [1]; [11] | [2]; [14] | MSSA | Pseudomonas aeruginosa; [23] | Escherichia coli; [31] | Enterococcus faecalis; [36]
0.125: Acinetobacter junii; [6] | [2]; [12] | Enterococcus faecalis; [34]
2: MRSA; test organism 4, MRSA | Pseudomonas aeruginosa; [24]
1: Serratia marcescens; [9] | [2]; [13] | Morganella morganii; [16] | Streptococcus mitis; [19] | Enterococcus faecalis; [35]
4: Enterobacter hormaechei; [20] | [3]; [21]
≦0.03: [3]; [22] | Streptococcus pneumoniae; [27] | Staphylococcus aureus; [32]
0.5: Serratia marcescens; [8] | Morganella morganii; [15] | Streptococcus mitis; [17] | Enterobacter hormaechei; test organism 30, Enterobacter hormaechei | Streptococcus pneumoniae; [28] | Acinetobacter baumannii | Staphylococcus aureus; [33]
≦0.25: Acinetobacter junii; [5] | Escherichia coli; [30]

From patent US20120108557A1, “FLUOROQUINOLONE DERIVATIVES FOR OPHTHALMIC APPLICATIONS” (ALCON RESEARCH, LTD., priority 2008, published 2012)
